Where a name gives a salt, the structure may show the parent alone.
| melting point | Structure (SMILES) |
| --- | --- |
| 145 to 147 °C | Nc1nc2ccccc2n1CCCCCCn1c(N)nc2ccccc21 (as salt: HCl) [Compound 1b, 1,6-Bis(2-aminobenzimidazol-1-yl)hexane] |
| 220 °C (dec.) | Nc1nc2ccccc2n1CCCn1c(N)nc2ccccc21 [Compound 1d, 1,3-Bis(2-aminobenzimidazol-1-yl)propane] |
| 257 to 258 °C | Nc1nc2ccccc2n1CCn1c(N)nc2ccccc21 [Compound 1e, 1,2-Bis(2-aminobenzimidazol-1-yl)ethane] |

From patent US6569880B2, “Bis(benzimidazole) derivatives serving as potassium blocking agents” (Neurosearch A/S, priority 1998, dated 2003)
